This is an account of results in US4882419A, “Process for preparing antibiotic L 17392 (deglucoteicoplanin)” (Gruppo Lepetit S.p.A., priority 1984, dated 1989).

≈ marks a conversion by molar mass, not a printed value.

Data set [1] in a line: Solubility (physico-chemical characteristics). Type of data set: physicochemical.
Data set [2] is described as follows: Potentiometric titration profile (pH1/2 values). Type of data set: physicochemical. Particulars: methylcellosolve:water 4:1, titration with 0.01N NaOH.
Data set [3] deals with Escherichia coli SKF 12140. Briefly: In vitro antibacterial activity, two-fold dilution MIC in microtiter system. Particulars: Isosensitest broth, inoculum about 10^4 cfu/ml, 18-24 h at 37° C. Type of data set: cell-based. The method, then:
(§1) The in vitro antibacterial activity of L 17392 was determined using the two-fold dilution method in microtiter system. Todd-Hewitt broth (Difco) was used for streptococci and Isosensitest broth (Oxoid) for staphylococci and gram-negative bacteria. Overnight broth cultures were diluted so that the final inoculum was about 10^4 colony-forming units per ml (cfu/ml).

Data set [4] has as its system Proteus vulgaris × 19 H ATCC 881. The description is as above. Type of data set: cell-based. To be noted: Isosensitest broth, inoculum about 10^4 cfu/ml, 18-24 h at 37° C. The method, then: as §1
Data set [5] concerns Pseudomonas aeruginosa ATCC 10145. Described as above. Type of data set: cell-based. Particulars: Isosensitest broth, inoculum about 10^4 cfu/ml, 18-24 h at 37° C. The method, then:
as §1

Data set [6] concerns Staphylococcus aureus ATCC 6538. The description is as above. Particulars: Isosensitest broth, inoculum about 10^4 cfu/ml, 18-24 h at 37° C. The class given is cell-based. The method, then:
as §1

Data set [7] concerns Streptococcus faecalis ATCC 7080. The data set is described as above. Particulars: Todd-Hewitt broth, inoculum about 10^4 cfu/ml, 18-24 h at 37° C. The class given is cell-based. The method, then: as §1
The test system of data set [8] is Streptococcus pneumoniae UC 41. The data set is described as above. The class given is cell-based. Particulars: Todd-Hewitt broth, inoculum about 10^4 cfu/ml, 18-24 h at 37° C. The method, then:
as §1

Data set [9] has as its system Streptococcus pyogenes C 203. The description is as above. Type of data set: cell-based. To be noted: Todd-Hewitt broth, inoculum about 10^4 cfu/ml, 18-24 h at 37° C. The method, then: as §1
For data set [10], the system named is Staplylococcus aureus Tour. The data set is described as above. The class given is cell-based, Staphylococcus aureus. The method, then:
The in vitro antibacterial activity of L 17392 was determined using the two-fold dilution method in microtiter system. Todd-Hewitt broth (Difco) was used for streptococci and Isosensitest broth (Oxoid) for staphylococci and gram-negative bacteria. Overnight broth cultures were diluted so that the final inoculum was about 10^4 colony-forming units per ml (cfu/ml). […] The obtained results are reported in Table I below: | ^(a) Inoculum: 10^6 cfu/ml | ^(b) Determined in the presence of 30% bovine serum

In data set [11] the test system is Staphylococcus epieermidis ATCC 12228. The description is as above. Particulars: Isosensitest broth, inoculum about 10^4 cfu/ml, 18-24 h at 37° C. The class given is cell-based, Staphylococcus epidermidis. The method, then:
as §1

For the next data set, the system named is S. aureus L 1096. The experiment in a line: MIC against clinical isolate methicillin-resistant staphylococci. The class given is cell-based. The method, then: as §1
A further data set relates to S. aureus L 1097. The description is as above. Type of data set: cell-based. The method, then: as §1
A further data set deals with S. aureus L 1524. The data set is described as above. The class given is cell-based. The method, then:
as §1

The subject of the next data set is S. aureus L 1526. Described as above. The class given is cell-based. The method, then: as §1
For another data set, the system named is S. epidermidis L 1142. The description is as above. The class given is cell-based. The method, then:
as §1

A further data set relates to S. epidermidis L 1372. Described as above. The class given is cell-based. The method, then:
as §1

A further data set relates to S. epidermidis L 1378. Described as above. The class given is cell-based. The method, then: as §1
The subject of the next data set is S. epidermidis L 785. Described as above. Type of data set: cell-based. The method, then: as §1
A further data set has as its system S. epidermidis L 835. The data set is described as above. The class given is cell-based. The method, then: as §1
Data set [12] concerns staphylocci (S. aureus, S. epidermidis). The experiment in a line: Antibacterial activity against staphylococci, in words. Type of data set: cell-based. The method, then:
as §1

In data set [13] the test system is clinical isolate methicillin-resistant staphylococci (S. aureus, S. epidermidis). Briefly: Antibacterial activity against methicillin-resistant staphylococci, in words. The class given is cell-based. Particulars: various clinical isolates. The method, then: as §1
Data set [14] in a line: pKa of a sample dissolved in methylcellosolve/water 4:1. Type of data set: physicochemical.

Regarding `CC(=O)N[C@@H]1[C@@H](O[C@H]2c3ccc(c(Cl)c3)Oc3cc4cc(c3O)Oc3ccc(cc3Cl)C[C@@H]3NC(=O)[C@@H](N)c5ccc(O)c(c5)Oc5cc(O)cc(c5)[C@@H](NC3=O)C(=O)N[C@@H]4C(=O)N[C@@H]3C(=O)N[C@H]2C(=O)N[C@@H](C(=O)O)c2cc(O)cc(O)c2-c2cc3ccc2O)O[C@@H](CO)[C@H](O)[C@H]1O` (stereo in doubt) [antibiotic L 17046], the solubility entry in data set [1] (dimethylformamide, dimethylsulfoxide, propyleneglycol and methylcellosolve) is given as “freely soluble”; in data set [1] (methanol), “slightly soluble”; in data set [1] (n-hexane, ethyl ether and acetone), “almost insoluble”; in data set [1] (water at pH>8.0), “freely soluble”. For the same compound, the “pH1/2 value, third titration slope” value in [2] (five equivalents) was determined as 11. In addition, the “pH1/2 value, first titration slope” value in data set [2] (one equivalent) is given as 5.0. Moreover, the “pH1/2 value, second titration slope” value in [2] (one equivalent) turned out to be 7.0.
`N[C@H]1C(=O)N[C@@H]2Cc3ccc(c(Cl)c3)Oc3cc4cc(c3O)Oc3ccc(cc3Cl)[C@@H](O)[C@@H]3NC(=O)[C@H](NC(=O)[C@@H]4NC(=O)[C@@H](NC2=O)c2cc(O)cc(c2)Oc2cc1ccc2O)c1ccc(O)c(c1)-c1c(O)cc(O)cc1[C@@H](C(=O)O)NC3=O` [antibiotic L 17392, deglucoteicoplanin]: the MIC in data set [3] was 25 µg/mL (≈ 20.9 µM); in data set [4], 50 µg/mL (≈ 41.7 µM); in data set [5], over 100 µg/mL; in [6] it was 0.025 µg/mL (≈ 0.0209 µM); in data set [7] it was 0.1 µg/mL (≈ 0.0834 µM); in data set [8], 0.05 µg/mL (≈ 0.0417 µM). Also, the MIC in data set [9] came out at 0.05 µg/mL (≈ 0.0417 µM); in data set [10] (Determined in the presence of 30% bovine serum) it was 0.2 µg/mL; in data set [10] (Inoculum: 10^6 cfu/ml) it was 0.2 µg/mL (≈ 0.167 µM); in [10] (Isosensitest broth, inoculum about 10^4 cfu/ml, 18-24 h at 37° C.), 0.05 µg/mL (≈ 0.0417 µM); in data set [11], 0.0125 µg/mL (≈ 0.0104 µM); with S. aureus L 1096, 0.05 µg/mL (≈ 0.0417 µM). The MIC against S. aureus L 1097 was found to be 0.05 µg/mL (≈ 0.0417 µM); in the data set with S. aureus L 1524 it was 0.1 µg/mL (≈ 0.0834 µM); against S. aureus L 1526, 0.05 µg/mL (≈ 0.0417 µM); with S. epidermidis L 1142 it was 0.05 µg/mL (≈ 0.0417 µM); with S. epidermidis L 1372, 0.2 µg/mL (≈ 0.167 µM); in the data set on S. epidermidis L 1378, 0.05 µg/mL (≈ 0.0417 µM). Further, the MIC against S. epidermidis L 785 and against S. epidermidis L 835 was 0.05 µg/mL (≈ 0.0417 µM) in each case. For the same compound, the solubility result in data set [1] (aqueous methanol, ethanol and acetone) is given as “soluble”; in data set [1] (ethyl alcohol and dimethylformamide), “slightly soluble”; in data set [1] (water at a pH higher than 9), “soluble”. The “activity against staphylococci (in words)” value in data set [12] is given as “very active”. For the same compound, the “activity against methicillin-resistant staphylococci (in words)” value in data set [13] is on record as “very effective”.
In [14], “deglucoteicoplanin benzyl ester, hydrochloride” gave a pKa value of 6.67.

Broadly, the MIC is the smallest concentration in the dilution series that meets the test's criterion for growth inhibition.
